Values quoted from earlier work in patent US9717712B2, “Combinations comprising tricyclohexadecahexaene derivatives for use in the treatment of hepatitis C virus” (BRISTOL-MYERS SQUIBB COMPANY, priority 2013, dated 2017).
pEC50: −log10 of the molar value. Where two headings read alike, the source gives them in different places.

Test system: HCV genotype 1a variant with glutamine 30 changed to glutamate in the NS5A protein (Q30E)
Settings: genotype 1a Q30E replicon
[1] = single agent, read-out: EC50, compound titrated singly

Compound | reciprocal synergistic inhibitory effect for the combination (BMS-790052 titrated with P-55 fixed at 200 nM) | pEC50 (P-55 fixed at 200 nM, read-out: EC50 of BMS-790052 in the presence of a fixed amount of P-55) | pEC50 [1] | pEC50 (BMS-790052 fixed at 200 nM, read-out: EC50 of P-55 in the presence of a fixed amount of BMS-790052) | synergistic inhibitory effect for the combination (P-55 titrated with BMS-790052 fixed at 200 nM)
COC(=O)N[C@H](C(=O)N1CCC[C@H]1c1nc(-c2ccc(-c3ccc(-c4c[nH]c([C@@H]5CCCN5C(=O)[C@@H](NC(=O)OC)C(C)C)n4)cc3)cc2)c[nH]1)C(C)C [BMS-790052] | ~100 fold | ~8.70 | ~6.70 |  | 
CC(C)CC(=O)N[C@H](c1ncc(-c2ccc(-c3ccc(-c4cnc([C@@H](NC(=O)CC(C)C)C(C)C)[nH]4)cc3)cc2)[nH]1)C(C)C [Compound P-55] |  |  | < 6.70 | ~8.70 | > 100 fold
